Values joined by “and” are separate entries in the source; they are usually repeats but may differ in a detail not shown here. Equal entries are not always repeated. Structures can show the parent of a compound that is named as a salt.
Key:
[1] = system: MV-4-1 1 cells (MLL-AF4); test: Proliferation assay (spheroid-like growth, 8 d, live-cell imaging), MV-4-11; assay type: cell-based, human; conditions: Homo sapiens, MV4-11, 192 h, MV-4-11 cells, absolute IC50 from AUC of confluence, read-out: (3) Spheroid assay MV-4-11 (IC50 (μM))
Procedure: The anti-proliferative effect of menin/MLL protein/protein interaction inhibitor test compounds was assessed in human leukemia cell lines. The cell lines MV-4-1 1 and MOLM14 harbor MEL translocations and express the MEL fusion proteins MLL-AF4 and MLL-AF9, respectively, as well as the wildtype protein from the second allele. […] K562 was used as a control cell line containing two MLL wildtype alleles in order to exclude compounds that display general cytotoxic effects.
MV-4-1 1 and MOLM14 were cultured in RPMI-1640 (Sigma Aldrich) supplemented with 10% fetal bovine serum (HyClone), 2 mM L-glutamine (Sigma Aldrich) and 50 μg/ml gentamycin (Gibco). K562 were propagated in RPMI-1640 (Sigma Aldrich) supplemented with 20% fetal bovine serum (HyClone), 2 mM L-glutamine (Sigma Aldrich) and 50 μg/ml gentamycin (Gibco).
In order to assess the anti-proliferative effects, 1,500 MV-4-1 1, 300 MOLM14 or 750 K562 cells were seeded in 200 μl media per well in 96-well round bottom, ultra-low attachment plates (Costar, catalogue number 7007). Cell seeding numbers were chosen based on growth curves to ensure linear growth throughout the experiment. Test compounds were added at different concentrations and the DMSO content was normalized to 0.3%>. Cells were incubated for 8d at 37° C. and 5% C02. Spheroid like growth was monitored in real-time by live-cell imaging (IncuCyteZOOM, Essenbio, 4× objective) acquiring one image every four hours for 8d. Confluence (%) as a measure of spheroid size was determined using an integrated analysis tool.
In order to determine the cumulative effect of the test compounds over time, the area under the curve (AUC) in a plot of confluence against time was calculated. Confluence at the beginning of the experiment (t=0) was used as baseline for the AUC calculation.
Absolute IC50 values were calculated according to the following procedure: % Control=(AUC sample/AUC control)*100 AUC control=mean AUC of control values(cells without compound/DMSO as vehicle control)
A non-linear curve fit was applied using the least squares (ordinary) fit method to the plot of % control versus compound concentration. Based on this, the absolute IC50 value (half maximal inhibitory concentration of the test compound causing an anti-proliferative effect of 50% relative to the vehicle control) was calculated.

[2] = target: T1, terbium chelate-labeled menin / FITC-MBM1 peptide (Menin/MLL) (Homo sapiens, UniProt O00255, T541A); test: Menin/MLL homogenous time-resolved fluorescence (HTRF) assay; assay type: binding; conditions: read-out: (2) Menin HTRF assay (IC50 (nM))
T1 construct: Menin (a. a. l-610-6×his tag) was labeled with terbium cryptate as follows
T1 sequence (O00255 with tags, fused parts or gaps T541A): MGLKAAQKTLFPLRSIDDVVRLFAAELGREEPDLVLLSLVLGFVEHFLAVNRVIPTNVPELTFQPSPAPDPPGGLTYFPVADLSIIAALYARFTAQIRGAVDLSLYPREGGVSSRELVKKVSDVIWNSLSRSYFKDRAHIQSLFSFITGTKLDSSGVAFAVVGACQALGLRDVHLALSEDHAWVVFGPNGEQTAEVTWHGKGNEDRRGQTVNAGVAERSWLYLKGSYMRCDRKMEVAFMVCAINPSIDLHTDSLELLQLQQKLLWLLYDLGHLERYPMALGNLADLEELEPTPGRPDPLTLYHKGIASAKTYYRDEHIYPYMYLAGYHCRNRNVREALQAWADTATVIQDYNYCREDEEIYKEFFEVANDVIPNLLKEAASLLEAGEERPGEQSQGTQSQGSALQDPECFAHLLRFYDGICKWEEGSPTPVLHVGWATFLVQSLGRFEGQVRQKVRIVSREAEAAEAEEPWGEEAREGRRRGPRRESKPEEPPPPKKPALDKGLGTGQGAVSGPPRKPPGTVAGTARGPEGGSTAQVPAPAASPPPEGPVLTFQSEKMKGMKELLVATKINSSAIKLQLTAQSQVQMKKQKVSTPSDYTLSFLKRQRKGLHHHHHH
Procedure: 2) Menin/MLL Homogenous Time-Resolved Fluorescence (HTRF) Assay
To an untreated, white 384-well microtiter plate was added 40 nL 200× test compound in DMSO and 4 μL 2× terbium chelate-labeled menin (vide infra for preparation) in assay buffer (40 mM Tris .HCl, pH 7.5, 50 mM NaCl, 1 mM DTT and 0.05% Pluronic F-127). After incubation of test compound and terbium chelate-labeled menin for 5 min at ambient temperature, 4 μL 2×FITC-MBM1 peptide (FITC-P-alanine-SARWRFPARPGT-NH2) in assay buffer was added, the microtiter plate centrifuged at 1000 rpm for 1 min and the assay mixtures incubated for 15 min at ambient temperature. The relative amount of menin ⋅FITC-MBM1 complex present in an assay mixture is determined by measuring the homogenous time-resolved fluorescence (HTRF) of the terbium/FITC donor/acceptor fluorphore pair using a BMG Pherastar plate reader (ex. 337 nm/terbium cm. 490 nm/FITC cm. 520 nm) at ambient temperature. The degree of fluorescence resonance energy transfer (the HTRF value) is expressed as the ratio of the fluorescence emission intensities of the FITC and terbium fluorophores (P^m 520 nm//F^em 490 nm). The final concentrations of reagents in the binding assay are 100 pM terbium chelate-labeled menin, 75 nM FITC-MBM1 peptide and 0.5%) DMSO in assay buffer. Dose-response titrations of test compounds are conducted using an 11 point, three-fold serial dilution scheme, starting typically at 25 μM.
Compound potencies were determined by first calculating % inhibition at each compound concentration according to equation 1: % inhibition=((HC−LC)−(HTRF^compound−LC))/(HC−LC))*100 (Eqn 1)
Where LC and HC are the HTRF values of the assay in the presence or absence of a saturating concentration of a compound that competes with FITC-MBM1 for binding to menin, and HTRF^compound is the measured HTRF value in the presence of the test compound. HC and LC HTRF values represent an average of at least 16 replicates per plate.
Where Bottom and Top are the lower and upper asymptotes of the dose-response curve, respectively, IC50 is the concentration of compound that yields 50% inhibition of signal and h is the Hill coefficient.
Preparation of Terbium cryptate labeling of Menin: Menin (a. a. l-610-6×his tag) was labeled with terbium cryptate as follows. 2 mg of Menin was buffer exchanged into 1× phosphate buffered saline. 16 uM Menin was incubated with 4-fold molar excess NHS-terbium cryptate (Cisbio Bioassays, Bedford, Mass.) for 2 hours at room temperature. The labeled protein was purified away from free label by running the reaction over a Superdex 200 Increase 10/300 GL column at 0.75 ml/min. Peak fractions were collected, aliquoted and frozen at −80° C.

melting point | IC50 [1] [µM] | IC50 [2] [nM] | Compound
130 °C | – | – | FC(F)(F)Cc1cc2c(N3CCC[C@@H](NCc4ccccc4)CC3)ncnc2s1 (as salt: HCl) [Compound 3, (R)N-benzyl-1-(6-(2,2,2-trifluoroethyl)thieno[2,3-d]pyrimidin-4-yl)azepan-4-amine]
230 °C | – | – | FC(F)(F)Cc1cc2c(N3CCC[C@H](NCc4ccccc4)CC3)ncnc2s1 (as salt: HCl) [Compound 4, (S)-N-benzyl-1-(6-(2,2,2-trifluoroethyl)thieno[2,3-d]pyrimidin-4-yl)azepan-4-amine]
262 to 264 °C | – | – | Cc1ccc(CNC2CCCN(c3ncnc4sc(CC(F)(F)F)cc34)CC2)cc1 (centres unmarked) (as salt: HCl) [Compound 16]
244 °C | – | – | FC(F)CN[C@@H]1CCCN(c2ncnc3sc(CC(F)(F)F)cc23)CC1 (as salt: hydrochloride) [Compound 5]
205 °C | – | – | O=C(NC1CCCN(c2ncnc3sc(CC(F)(F)F)cc23)CC1)C1CC2(CC2)CN1 (centres unmarked) (as salt: hydrochloride) [Compound 10B]
110 °C | – | – | FC(F)(F)Cc1cc2c(N3CCCC(NCC4CCOCC4)CC3)ncnc2s1 (centres unmarked) (as salt: hydrochloride) [Compound 55]
110 °C | – | – | CN(C)CCCCN(Cc1cnn(C)c1)C1CCCN(c2ncnc3sc(CC(F)(F)F)cc23)CC1 (centres unmarked) (as salt: hydrochloride) [Compound 61]
130 °C | – | – | CN(C)CCCNC1CCCN(c2ncnc3sc(CC(F)(F)F)cc23)CC1 (centres unmarked) (as salt: hydrochloride) [Compound 62]
160 °C | – | – | C[C@@H](N[C@@H]1CCCN(c2ncnc3sc(CC(F)(F)F)cc23)CC1)c1cnn(C)c1 (single isomer, unassigned) (as salt: HCl) [Compound 54A]
160 °C | – | – | C[C@H](N[C@@H]1CCCN(c2ncnc3sc(CC(F)(F)F)cc23)CC1)c1cnn(C)c1 (single isomer, unassigned) (as salt: HCl) [Compound 54B]
160 °C | – | – | C[C@@H](N[C@H]1CCCN(c2ncnc3sc(CC(F)(F)F)cc23)CC1)c1cnn(C)c1 (single isomer, unassigned) (as salt: HCl) [Compound 54D]
176 °C | – | – | Fc1ccc(CN[C@@H]2CCCN(c3ncnc4sc(CC(F)(F)F)cc34)CC2)c(F)c1 (single isomer, unassigned) (as salt: hydrochloride) [Compound 7A]
180 °C | – | – | Fc1ccc(CN[C@H]2CCCN(c3ncnc4sc(CC(F)(F)F)cc34)CC2)c(F)c1 (single isomer, unassigned) (as salt: hydrochloride) [Compound 7B]
156 °C | – | – | Cc1ccc(CN[C@@H]2CCCN(c3ncnc4sc(CC(F)(F)F)cc34)CC2)c(C)c1 (single isomer, unassigned) (as salt: hydrochloride) [Compound 9A]
160 °C | – | – | Cc1ccc(CN[C@H]2CCCN(c3ncnc4sc(CC(F)(F)F)cc34)CC2)c(C)c1 (single isomer, unassigned) (as salt: hydrochloride) [Compound 9B]
190 °C | – | – | CC(C)[C@H](N[C@H]1CCCN(c2ncnc3sc(CC(F)(F)F)cc23)CC1)C1CNC1 (single isomer, unassigned) (as salt: hydrochloride) [Compound 32]
200 °C | – | – | CC(C)[C@H](NC1CCCN(c2ncnc3sc(CC(F)(F)F)cc23)CC1)C1CNC1 (single isomer, unassigned) (as salt: hydrochloride) [Compound 33]
188 °C | – | – | CC(C)[C@@H](NC1CCCN(c2ncnc3sc(CC(F)(F)F)cc23)CC1)C1CNC1 (single isomer, unassigned) (as salt: hydrochloride) [Compound 34]
193 °C | – | – | CC(C)[C@@H](N[C@@H]1CCCN(c2ncnc3sc(CC(F)(F)F)cc23)CC1)C1CNC1 (single isomer, unassigned) (as salt: hydrochloride) [Compound 35]
208 °C | – | – | CC(C)[C@@H](N[C@H]1CCCN(c2ncnc3sc(CC(F)(F)F)cc23)CC1)C1CNC1 (single isomer, unassigned) (as salt: hydrochloride) [Compound 36]
150 °C | – | – | CN(C)CCN(Cc1ccccc1)[C@@H]1CCCN(c2ncnc3sc(CC(F)(F)F)cc23)CC1 (single isomer, unassigned) (as salt: hydrochloride) [Compound 57A]
134 °C and 136 °C | – | – | C[C@H]1CCN(c2ncnc3sc(CC(F)(F)F)cc23)CC[C@H]1NCc1ccccc1 (single isomer, unassigned) (as salt: hydrochloride) [Compound 68A]
150 °C | – | – | C[C@@H]1CCN(c2ncnc3sc(CC(F)(F)F)cc23)CC[C@@H]1NCc1ccccc1 (single isomer, unassigned) (as salt: hydrochloride) [Compound 68B]
111 °C and 111.41 °C | 2.2 | 60 | FC(F)(F)Cc1cc2c(N3CCCC(N4Cc5ccccc5C4)CC3)ncnc2s1 (centres unmarked) [Compound 6]
94 °C | – | 5790 | CC(C)NC1CCCN(c2ncnc3sc(CC(F)(F)F)cc23)CC1 (centres unmarked) [Compound 12]
110 °C | – | 606 | FC(F)(F)Cc1cc2c(N3CCCC(Oc4ccccc4)CC3)ncnc2s1 (centres unmarked) [Compound 15]
– | 4.3 | 284 | Cn1ncc2c1CCC[C@@H]2N[C@@H]1CCCN(c2ncnc3sc(CC(F)(F)F)cc23)CC1 [Compound 65B]
164 °C | 3.6 | 396 | CC1CN(c2ncnc3sc(CC(F)(F)F)cc23)CCCC1NCc1ccccc1 (centres unmarked) [Compound 67A]
